Experiments:
[1] = test system: T-cell factor (TCF)-luciferase reporter using Wnt pathway as index; assay: Inhibitory activity against TCF-luciferase reporter using Wnt pathway as index (DLD-1/TCF-Luc cells); type: cell-based, human; details: Homo sapiens; 1 μmol/L; DLD-1/TCF-Luc cells; luciferase activity after 18 hours; read-out: Inhibition ratio (%) at 1 μmol/L
In short: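 Human colorectal DLD-1 cells stably carrying a TCF-responsive luciferase reporter (pGL4.27) were exposed to test compound for 18 h at 37 °C. Luciferase luminescence read; % inhibition calculated relative to control and blank wells, reported at 1 μmol/L.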

tankyrase-2 = target: T1, tankyrase-2 (Homo sapiens, UniProt Q9H2K2); assay: Tankyrase-2 enzyme inhibition test (Tankyrase-2 Chemiluminescent Assay Kit); type: biochemical; details: autoribosylation of GST-tankyrase-2 fusion protein, chemiluminescence
T1 construct: purchased BPS Bioscience, Inc. 80566
T1 sequence (Q9H2K2 1-1166): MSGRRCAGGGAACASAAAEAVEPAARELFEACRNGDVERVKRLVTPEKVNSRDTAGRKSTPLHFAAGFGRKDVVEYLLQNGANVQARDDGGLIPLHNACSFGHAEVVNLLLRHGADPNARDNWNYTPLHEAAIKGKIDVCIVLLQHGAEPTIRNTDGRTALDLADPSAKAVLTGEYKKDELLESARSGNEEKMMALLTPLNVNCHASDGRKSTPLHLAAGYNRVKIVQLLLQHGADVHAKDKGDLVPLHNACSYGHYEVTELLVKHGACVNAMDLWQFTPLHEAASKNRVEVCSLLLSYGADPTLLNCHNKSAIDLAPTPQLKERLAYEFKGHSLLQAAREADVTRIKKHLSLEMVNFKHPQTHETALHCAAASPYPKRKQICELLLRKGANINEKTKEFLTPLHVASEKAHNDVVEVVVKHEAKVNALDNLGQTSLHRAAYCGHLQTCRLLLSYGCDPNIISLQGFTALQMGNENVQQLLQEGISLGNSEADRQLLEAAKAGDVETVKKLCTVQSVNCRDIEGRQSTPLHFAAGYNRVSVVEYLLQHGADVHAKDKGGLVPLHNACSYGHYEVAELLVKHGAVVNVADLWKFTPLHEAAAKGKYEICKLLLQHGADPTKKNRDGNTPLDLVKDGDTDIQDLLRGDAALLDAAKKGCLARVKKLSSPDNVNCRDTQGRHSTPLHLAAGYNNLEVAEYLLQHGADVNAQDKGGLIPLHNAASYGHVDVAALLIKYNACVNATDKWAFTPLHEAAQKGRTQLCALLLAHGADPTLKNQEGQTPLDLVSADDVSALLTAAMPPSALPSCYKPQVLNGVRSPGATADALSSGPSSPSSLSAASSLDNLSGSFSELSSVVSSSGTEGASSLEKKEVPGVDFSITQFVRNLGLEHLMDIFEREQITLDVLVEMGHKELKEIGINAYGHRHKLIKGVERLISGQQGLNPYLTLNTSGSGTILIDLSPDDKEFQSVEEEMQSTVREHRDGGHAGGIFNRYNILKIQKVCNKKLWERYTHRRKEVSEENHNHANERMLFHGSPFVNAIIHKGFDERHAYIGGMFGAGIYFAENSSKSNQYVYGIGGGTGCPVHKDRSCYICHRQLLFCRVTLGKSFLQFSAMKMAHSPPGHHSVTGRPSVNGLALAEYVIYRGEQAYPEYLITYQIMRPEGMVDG
Protocol: Test Example 2: Tankyrase-2 Enzyme Inhibition Test
The enzyme activity of tankyrase-2 was evaluated using Tankyrase-2 Chemiluminescent Assay Kit (BPS Bioscience, Inc., Catalog No. 80566). The Tankyrase-2 Chemiluminescent Assay Kit is a kit for evaluating the enzyme activity of tankyrase-2 using autoribosylation of glutathione-S-transferase (GST)-tankyrase-2 fusion protein as an index. All the experimental materials except for PBS (PBST) buffer containing phosphate-buffered saline (PBS) and 0.05% Tween 20 are all included in the kit. The GST-tankyrase-2 enzyme diluted with 50 μL of 1× tankyrase buffer was added to the wells of a 96-well plate coated with glutathione. After the plate was left to stand overnight at 4° C., the plate was washed 3 times with the PBST buffer. 150 μL of blocking buffer was added thereto, and the plate was left to stand at room temperature for 30 minutes to block the wells. The plate was washed 3 times with the PBST buffer. Before the ribosylation reaction, an assay mixture containing a biotinylated substrate and a test compound diluted with 1× tankyrase buffer were mixed, whereby a reaction mixture was prepared. In order to start the ribosylation reaction, 50 μL of the reaction mixture was added to the wells. In a blank well, 1× tankyrase buffer was added in place of the reaction mixture containing a biotinylated substrate. The plate was left to stand at 30° C. for 1 hour. After the reaction, the plate was washed 3 times with the PBST buffer. Streptavidin-horseradish peroxidase (HRP) was diluted to 50-fold with the blocking buffer. The diluted streptavidin-HRP was added to the wells, and the plate was left to stand at room temperature for 30 minutes. The plate was washed 3 times with the PBST buffer. Immediately before use, 50 μL of the HRP chemiluminescent substrate A and 50 μL of the HRP chemiluminescent substrate B were mixed and 100 μL of the resulting mixture was added to the wells. The chemiluminescence was measured using a chemiluminescence measuring apparatus. The inhibition ratio was obtained according to the following formula 2. [Math. 2] Inhibition ratio (%)=100−{(chemiluminescence intensity when test compound was added)−(chemiluminescence intensity of blank)}/{(chemiluminescence intensity of control)−(chemiluminescence intensity of blank)}×100 Formula 2

SMILES: CC(=O)Nc1ccc2ncnc(N3CCC(CN4Cc5cccnc5N(c5ccnc(C#N)c5)C4=O)CC3)c2c1 [Compound 50, N-[4-(4-{[1-(2-Cyanopyridin-4-yl)-2-oxo-1,2-dihydropyrido[2,3-d]pyrimidin-3(4H)-yl]methyl}piperidin-1-yl)quinazolin-6-yl]acetamide]
- inhibition at 1 µM [1]: 87%
- Inhibition ratio (%) at 1 μmol/L (tankyrase-2): 82%

Source: patent US9771351B2, “Wnt signaling inhibitor” (KYOWA HAKKO KIRIN CO., LTD., priority 2013, dated 2017)
